Counter-ions that a name gives are not always drawn.
Experiments:
D2 receptors = molecular target: T1, D2 receptors (Chlorocebus aethiops, UniProt P52702); assay: D2 receptor binding assay (3H-YM 09151-2); set-up: species or system African Green monkey; details: Table 1; COS cell pellets with recombinant receptor, 0.5 nM 3H-YM 09151-2
T1 construct: expressed in transfected cells; host or cells: COS cells
Protocol: (§1) Assay for D2 and D4 Receptor Binding Activity
(§2) Pellets of COS cells containing recombinantly produced D2 or D4 receptors from African Green monkey were used for the assays. The sample is homogenized in 100 volumes (w/vol) of 0.05 M Tris HCl buffer at 4° C. and pH 7.4. The sample is then centrifuged at 30,000×g and resuspended and rehomogenized. The sample is then centrifuged as described and the final tissue sample is frozen until use. The tissue is resuspended 1:20 (wt/vol) in 0.05 M Tris HCl buffer containing 100 mM NaCl.

M1 Muscarinic subtype = molecular target: T2, M1 Muscarinic subtype (Homo sapiens, UniProt P11229); assay: M1 Muscarinic subtype assay per U.S. Pat. No. 5,093,333; assay type: binding; details: Table 1
T2 sequence (P11229 1-460): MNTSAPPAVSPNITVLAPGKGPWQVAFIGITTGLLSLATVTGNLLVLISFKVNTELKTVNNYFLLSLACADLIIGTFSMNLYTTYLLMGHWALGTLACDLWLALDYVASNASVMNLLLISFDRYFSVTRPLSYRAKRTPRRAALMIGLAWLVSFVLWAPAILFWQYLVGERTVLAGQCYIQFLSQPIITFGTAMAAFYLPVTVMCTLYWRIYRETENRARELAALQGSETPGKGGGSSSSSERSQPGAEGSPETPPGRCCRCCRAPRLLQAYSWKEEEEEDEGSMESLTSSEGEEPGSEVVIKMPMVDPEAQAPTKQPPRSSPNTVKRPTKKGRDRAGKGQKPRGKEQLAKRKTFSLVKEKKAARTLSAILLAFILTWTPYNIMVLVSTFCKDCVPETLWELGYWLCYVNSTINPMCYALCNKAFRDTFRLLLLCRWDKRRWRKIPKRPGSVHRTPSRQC

M2 Muscarinic subtype = molecular target: T3, M2 Muscarinic subtype (Homo sapiens, UniProt P08172); assay: M2 Muscarinic subtype assay per U.S. Pat. No. 5,093,333; assay type: binding; details: Table 1
T3 sequence (P08172 1-466): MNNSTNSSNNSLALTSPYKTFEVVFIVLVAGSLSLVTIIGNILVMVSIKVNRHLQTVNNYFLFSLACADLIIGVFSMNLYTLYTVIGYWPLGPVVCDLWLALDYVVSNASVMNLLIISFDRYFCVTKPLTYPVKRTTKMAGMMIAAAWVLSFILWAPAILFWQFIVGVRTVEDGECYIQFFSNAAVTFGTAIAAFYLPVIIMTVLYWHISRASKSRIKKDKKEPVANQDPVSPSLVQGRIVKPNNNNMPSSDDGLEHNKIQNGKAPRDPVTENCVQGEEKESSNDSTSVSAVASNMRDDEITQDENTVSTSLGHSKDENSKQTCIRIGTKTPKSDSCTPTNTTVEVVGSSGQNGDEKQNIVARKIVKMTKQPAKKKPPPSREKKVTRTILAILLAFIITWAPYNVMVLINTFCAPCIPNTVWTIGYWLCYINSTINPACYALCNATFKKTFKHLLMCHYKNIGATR

D4 receptors = D4 receptors (Chlorocebus aethiops, UniProt A0A0D9REG7); assay: D4 receptor binding assay (3H-YM 09151-2); set-up: species or system African Green monkey; details: Table 1; COS cell pellets with recombinant receptor, 0.5 nM 3H-YM 09151-2; read-out: D4 K1
Chain of D4 receptors (A0A0D9REG7 entry or part of it): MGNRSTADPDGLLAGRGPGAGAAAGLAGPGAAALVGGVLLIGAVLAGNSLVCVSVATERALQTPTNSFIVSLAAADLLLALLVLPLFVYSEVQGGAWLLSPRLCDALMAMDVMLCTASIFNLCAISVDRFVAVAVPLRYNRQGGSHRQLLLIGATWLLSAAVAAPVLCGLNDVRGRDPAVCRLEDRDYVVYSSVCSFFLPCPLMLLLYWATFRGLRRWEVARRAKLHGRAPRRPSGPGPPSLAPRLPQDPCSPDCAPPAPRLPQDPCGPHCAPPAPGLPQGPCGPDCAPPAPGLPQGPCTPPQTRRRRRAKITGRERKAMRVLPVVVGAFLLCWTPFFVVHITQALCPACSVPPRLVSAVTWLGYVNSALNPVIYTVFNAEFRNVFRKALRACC
Protocol: as §1, §2

T1 sequence (P52702 whole entry): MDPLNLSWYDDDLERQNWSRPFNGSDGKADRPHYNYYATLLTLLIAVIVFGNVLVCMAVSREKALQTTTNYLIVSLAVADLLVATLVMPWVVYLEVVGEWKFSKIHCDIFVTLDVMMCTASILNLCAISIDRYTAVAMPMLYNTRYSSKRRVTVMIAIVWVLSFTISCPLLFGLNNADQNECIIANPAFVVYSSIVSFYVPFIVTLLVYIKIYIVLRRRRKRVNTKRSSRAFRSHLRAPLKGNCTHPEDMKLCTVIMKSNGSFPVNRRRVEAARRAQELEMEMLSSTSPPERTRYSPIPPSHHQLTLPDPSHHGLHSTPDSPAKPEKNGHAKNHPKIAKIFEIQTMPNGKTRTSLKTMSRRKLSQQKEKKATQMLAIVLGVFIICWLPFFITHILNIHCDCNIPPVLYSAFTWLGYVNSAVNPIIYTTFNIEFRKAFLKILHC

Row | Molecule | Ki (D2 receptors) [nM] | M1 (M1 Muscarinic subtype) [nM] | M2 (M2 Muscarinic subtype) [nM] | melting point [°C] | Ki (D4 receptors) [nM]
1 | c1ccc(N2CCN(CCNC3=Nc4ccccc4CC3)CC2)nc1 [Compound 2, 2-3,4-dihydroquinolyl(2-(4-(2-pyridyl)piperazinyl)ethyl)amine] | > 100 |  |  |  | 
2 | c1cnc(N2CCN(CCNc3ccc4ccccc4n3)CC2)nc1 [Compound 1, (2-(4-pyrimidin-2-ylpiperazinyl)ethyl)-2-quinolylamine] | 2720 | 264 | 299 |  | 
3 | OC1(c2ccc(Cl)cc2)CCN(CCCNC2=Nc3ccccc3CC2)CC1 (as salt: hydrobromid) |  |  |  | > 260 | 
4 | (4methyl(2-quinolyl))(2-(4-pyrimidin-2-ylpiperazinyl)ethyl)amine hydrobromide [Compound 11] |  | 178 | 246 |  | 10
5 | OC1(c2ccccc2)CCN(CCCNC2=Nc3ccccc3CC2)CC1 (as salt: hydrobromid) |  |  |  | 247 | 
6 | (3-(4-(2,3-dimethylphenyl)piperazinyl)propyl)-2-quinolylamine [Compound 21] | > 100 |  |  |  | 22
7 | (4-methyl(2-quinolyl))(3-(4-(pyrimidin-2-yl)piperazinyl)propyl)amine [Compound 22] | 3300 |  |  |  | 10
8 | Fc1cnc(N2CCN(CCNC3=Nc4ccccc4CC3)CC2)nc1 [Compound 3, 2-3,4-dihydroquinolyl(2-(4-(5-fluoropyrimidin-2-yl)piperazinyl)ethyl)amine] |  | 128 | 144 |  | 
